Measured values taken from ChEMBL document CHEMBL1145741, “Inhibition of bacterial IF2 binding to fMet-tRNA((fMet)) by aminoglycosides” (Bioorg Med Chem Lett, 2003).

Key:
[1] = (§1) Inhibitory activity against the displacement of Picogreen from fMet-tRNA(fMet) by the aminoglycoside; parameters: species or system Staphylococcus aureus
Staphylococcus aureus [2] = assay: (§2) Maximal inhibition of the aminoglycoside on Staphylococcus aureus IF-2 binding to fMet-tRNA(fMet)
[3] = Inhibitory activity of the aminoglycoside on Staphylococcus aureus IF-2 binding to fMet-tRNA(fMet)
Staphylococcus aureus [4] = assay: (§3) Denaturation rate constant of IF2 in the presence of aminoglycoside
Staphylococcus aureus [5] = assay: (§4) Maximal inhibition against the displacement of Picogreen from fMet-tRNA(fMet) by the aminoglycoside
Staphylococcus aureus [6] = assay: as §4; type: functional
Staphylococcus aureus [7] = assay: as §2; type: functional
Staphylococcus aureus [8] = assay: as §1; type: functional
Staphylococcus aureus [9] = assay: as §3; type: functional
Staphylococcus aureus [10] = assay: Inhibitory activity of the aminoglycoside on Staphylococcus aureus IF-2 binding to fMet-tRNA (fMet); type: functional

| SMILES | IC50 [1] [nM] | inhibition (Staphylococcus aureus [2]) [%] | IC50 [3] [nM] | Denaturation rate constant (Staphylococcus aureus [4]) [min⁻¹] | inhibition (Staphylococcus aureus [5]) [%] | IC50 (Staphylococcus aureus [8]) [nM] | IC50 (Staphylococcus aureus [10]) [nM] | inhibition (Staphylococcus aureus [6]) [%] | Inhibition (Staphylococcus aureus [7]) [%] | Denaturation rate constant (Staphylococcus aureus [9]) [min⁻¹] |
| --- | --- | --- | --- | --- | --- | --- | --- | --- | --- | --- |
| NCC[C@H](O)C(=O)N[C@@H]1C[C@H](N)[C@@H](O[C@H]2O[C@H](CN)[C@@H](O)[C@H](O)[C@H]2O)[C@H](O)[C@H]1O[C@H]1O[C@H](CO)[C@@H](O)[C@H](N)[C@H]1O [AMIKACIN] | 160 | 43 | 1020 | 0.093 | 85 |  |  |  |  |  |
| CN[C@@H]1C[C@H](N)[C@@H](O)[C@H](O[C@H]2O[C@H](CO)[C@H](O)[C@@H]3O[C@@]4(O[C@@H]23)O[C@H]([C@H](N)CO)[C@H](O)[C@H](O)[C@H]4O)[C@H]1O [HYGROMYCIN] | 278 | 84 | 66000 | 0.096 | 81 |  |  |  |  |  |
| CNC1C(O)C(OC2C(N)CC(N)C(OC3OC(CN)CCC3N)C2O)OCC1(C)O (configuration not stated) [GENTAMICIN C1A] |  | 66 | 450 |  |  |  |  |  |  |  |

Second part, led by results:

| IC50 [1] [nM] | inhibition (Staphylococcus aureus [2]) [%] | IC50 [3] [nM] | Denaturation rate constant (Staphylococcus aureus [4]) [min⁻¹] | inhibition (Staphylococcus aureus [5]) [%] | IC50 (Staphylococcus aureus [8]) [nM] | IC50 (Staphylococcus aureus [10]) [nM] | SMILES | inhibition (Staphylococcus aureus [6]) [%] | Inhibition (Staphylococcus aureus [7]) [%] | Denaturation rate constant (Staphylococcus aureus [9]) [min⁻¹] |
| --- | --- | --- | --- | --- | --- | --- | --- | --- | --- | --- |
| 24 | 61 | 17800 | 0.092 | 92 |  |  | NC[C@@H]1O[C@@H](O[C@H]2[C@H](O)[C@@H](O[C@H]3O[C@H](CO)[C@@H](O)[C@H](N)[C@H]3O)[C@H](N)C[C@@H]2N)[C@@H](O)[C@H](O)[C@H]1O [KANAMYCIN A] |  |  |  |
|  |  |  |  |  | 7 | 7 | CN[C@@H]1[C@@H](O)[C@@H](O[C@@H]2[C@@H](O)[C@H](O[C@H]3OC(CN)=CC[C@H]3N)[C@@H](N)C[C@H]2N)OC[C@]1(C)O [SISOMICIN] | 100 | 75 | 0.087 |
| 1790 | 43 | 1490 | 0.094 | 95 |  |  | CN[C@@H]1[C@H](O[C@H]2[C@H](O[C@H]3[C@H](O)[C@@H](O)[C@H](N=C(N)N)[C@@H](O)[C@@H]3N=C(N)N)O[C@@H](C)[C@]2(O)C=O)O[C@@H](CO)[C@H](O)[C@H]1O [STREPTOMYCIN] |  |  |  |
| 9 | 76 | 50 | 0.095 | 100 |  |  | NC[C@@H]1O[C@H](O[C@H]2[C@@H](O)[C@H](O[C@@H]3[C@@H](O)[C@H](N)C[C@H](N)[C@H]3O[C@H]3O[C@H](CN)[C@@H](O)[C@H](O)[C@H]3N)O[C@@H]2CO)[C@H](N)[C@@H](O)[C@@H]1O [FRAMYCETIN] |  |  |  |
